# According to the NIST ThermoML archive (doi:10.1021/je020130i):
# ± gives the expanded uncertainty stated by the source.
# Details: 363.15 K; Liquid
row,Structure (SMILES),vapor or sublimation pressure
1,CNC=O [N-methylformamide],2.1 ± 0.09 kPa [middle of 4 runs]
2,CC#N [acetonitrile],131.21 ± 1.7 kPa
3,c1ccccc1 [benzene],137.28 ± 1.8 kPa
4,Clc1ccccc1 [chlorobenzene],28.33 ± 0.42 kPa
5,CCCCCC [hexane],188.05 ± 2.4 kPa
